Source: patent US8518931B2, “Compounds and compositions as kinase inhibitors” (IRM LLC, priority 2008, dated 2013)

Target: T1, NPM-ALK (Homo sapiens, UniProt Q9UM73)
T1 construct: nucleophosmin (NPM, NPM1; human P06748) fusion partner; expressed in transfected cells; host or cells: murine BaF3 cells (DSMZ), transfected with pCIneo (Promega) coding for NPM-ALK and selected with G418; the other entry of the earlier key: Npm1 (Q61937, Nucleophosmin)
Experiment: NPM-ALK BaF3 assay (growth inhibition of BaF3-NPM-ALK cells)
Type: cell-based
Conditions: human NPM-ALK overexpressing murine BaF3 cells
Excerpt: The expression of NPM-ALK may be achieved by transfecting the BaF3 cell line with an expression vector pClneo™ (Promega Corp., Madison Wis., USA) coding for NPM-ALK and subsequent selection of G418 resistant cells. Non-transfected BaF3 cells depend on IL-3 for cell survival. In contrast, NPM-ALK expressing BaF3 cells (named BaF3-NPM-ALK hereinafter) can proliferate in the absence of IL-3 because they obtain proliferative signal through NPM-ALK kinase. Putative inhibitors of the NPM-ALK kinase therefore abolish the growth signal and may result in antiproliferative activity. The antiproliferative activity of putative inhibitors of the NPM-ALK kinase can however be overcome by addition of IL-3, which provides growth signals through an NPM-ALK independent mechanism. An analogous cell system using FLT3 kinase has also been described (see, E Weisberg et al. Cancer Cell; 1, 433-443 (2002)).
The inhibitory activity of the compounds of the invention may be determined as follows. In general, BaF3-NPM-ALK cells (15,000/microtitre plate well) are transferred to 96-well microtitre plates. Test compounds dissolved in dimethyl sulfoxide (DMSO) are added in a series of concentrations (dilution series) in such a manner that the final concentration of DMSO is not greater than 1% (v/v). After the addition, the plates are incubated for two days during which the control cultures without test compound are able to undergo two cell-division cycles. The growth of the BaF3-NPM-ALK cells is measured by means of YOPRO™ staining [T Idziorek et al. J. Immunol. Methods; 185: 249-258 (1995)]: 25 μl of lysis buffer comprising 20 mM sodium citrate, pH 4.0, 26.8 mM sodium chloride, 0.4% NP40, 20 mM EDTA and […] to each well. Cell lysis is completed within 60 min at room temperature and total amount of YOPRO™ bound to DNA is determined by measurement using the Cytofluor II 96-well reader (PerSeptive Biosystems) with the following settings: Excitation (nm) 485/20 and Emission (nm) 530/25.
IC50 values may be determined by a computer-aided system using the formula: IC50=[(ABStest−ABSstart)/(ABScontrol−ABSstart)]×100·(ABS=absorption)
In general, compounds of the invention have IC50 values from 1 nM to 10 μM. In some examples, compounds of the invention have IC50 values from 0.01 μM to 5 μM. In other examples, compounds of the invention have IC50 values from 0.01 μM to 1 μM, or more particularly from 1 nM to 1 μM.
Table 1 describes representative compounds of the invention, prepared following the procedures described above. IC50 values are as measured in an NPM-ALK BaF3 assay.

T1 sequence (Q9UM73 with tags, fused parts or gaps): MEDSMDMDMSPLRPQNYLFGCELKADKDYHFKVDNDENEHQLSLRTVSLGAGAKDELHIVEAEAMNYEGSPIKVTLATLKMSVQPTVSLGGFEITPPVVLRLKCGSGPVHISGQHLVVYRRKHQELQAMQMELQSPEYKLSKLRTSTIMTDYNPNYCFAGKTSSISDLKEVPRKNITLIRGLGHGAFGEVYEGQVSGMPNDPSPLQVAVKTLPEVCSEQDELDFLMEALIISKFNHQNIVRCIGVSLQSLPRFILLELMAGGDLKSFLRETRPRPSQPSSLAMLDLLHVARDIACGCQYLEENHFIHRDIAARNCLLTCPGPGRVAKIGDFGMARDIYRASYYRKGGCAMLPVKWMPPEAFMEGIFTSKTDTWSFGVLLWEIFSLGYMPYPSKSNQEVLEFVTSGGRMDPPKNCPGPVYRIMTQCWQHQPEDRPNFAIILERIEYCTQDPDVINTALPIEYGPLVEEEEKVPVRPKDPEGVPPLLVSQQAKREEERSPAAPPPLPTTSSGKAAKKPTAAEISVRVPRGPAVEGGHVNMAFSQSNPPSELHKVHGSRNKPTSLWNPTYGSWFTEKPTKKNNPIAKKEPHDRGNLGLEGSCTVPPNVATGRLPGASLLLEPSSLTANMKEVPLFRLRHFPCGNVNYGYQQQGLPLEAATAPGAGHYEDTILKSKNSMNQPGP

| Structure (SMILES) | IC50 [µM] |
| --- | --- |
| COc1cc(C2CCN(C(=O)CCN(C)C)CC2)c(C)cc1Nc1nc(Nc2ccccc2S(=O)(=O)C(C)C)n2nccc2n1 [Ex 25] | 0.022 |
| COc1cc(C2CCN(C(=O)[C@H](C)N3CC[C@H](O)C3)CC2)c(C)cc1Nc1nc(Nc2ccccc2S(=O)(=O)C(C)C)n2nccc2n1 [Ex 78] | 0.036 |
| CNC(=O)CCN1CCC(c2cc(OC)c(Nc3nc(Nc4ccccc4S(=O)(=O)C(C)C)n4nccc4n3)cc2C)CC1 [Ex 90] | 0.013 |
| CC(C)S(=O)(=O)c1ccccc1Nc1nc(Nc2ccc(C3CCN(CC(N)=O)CC3)cc2)nc2ccnn12 [Ex 91] | 0.128 |
| COc1cc(C2CCN(C(=O)CN3CCCCC3)CC2)c(C)cc1Nc1nc(Nc2ccccc2S(=O)(=O)C(C)C)n2nccc2n1 [Ex 14] | 0.026 |
| COc1cc(C2CCN(C(=O)C3CCCN3C)CC2)c(C)cc1Nc1nc(Nc2ccccc2S(=O)(=O)C(C)C)n2nccc2n1 (centres unmarked) [Ex 34] | 0.025 |
| COc1cc(C2CCN(C(=O)C3CCCN3)CC2)c(C)cc1Nc1nc(Nc2ccccc2S(=O)(=O)C(C)C)n2nccc2n1 (centres unmarked) [Ex 31] | 0.036 |
| COc1cc(C2CCN(C(=O)CN3CC[C@@H](F)C3)CC2)c(C)cc1Nc1nc(Nc2ccccc2S(=O)(=O)C(C)C)n2nccc2n1 [Ex 62] | 0.058 |
| CCN(CC)CC(=O)N1CCC(c2cc(OC)c(Nc3nc(Nc4ccccc4S(=O)(=O)C(C)C)n4nccc4n3)cc2C)CC1 [Ex 110] | 0.016 |
| COc1cc(C2CCN(C)CC2)c(C)cc1Nc1nc(Nc2ccccc2S(=O)(=O)C(C)C)n2nccc2n1 [Ex 3] | 0.019 |
| COc1cc(C2CCN(C(=O)[C@@H]3C[C@@H](O)CN3C)CC2)c(C)cc1Nc1nc(Nc2ccccc2S(=O)(=O)C(C)C)n2nccc2n1 [Ex 50] | 0.052 |
| Cc1cc(C2CCNCC2)c(Cl)cc1Nc1nc(Nc2ccccc2S(=O)(=O)C(C)C)n2nccc2n1 [Ex 11] | 1.4 |
| Cc1cc(Nc2nc(Nc3ccccc3S(=O)(=O)C(C)C)n3nccc3n2)c(OC(C)C)cc1C1CCN(Cc2cnn(C)c2)CC1 [Ex 6] | 0.08 |
| COc1cc(C2CCN(C(=O)CN3CC(O)C3)CC2)c(C)cc1Nc1nc(Nc2ccccc2S(=O)(=O)C(C)C)n2nccc2n1 [Ex 59] | 0.193 |
| COc1cc(C2CCN(C(=O)[C@H]3COCCN3)CC2)c(C)cc1Nc1nc(Nc2ccccc2S(=O)(=O)C(C)C)n2nccc2n1 [Ex 70, (R)-(4-(4-(4-(2-(isopropylsulfonyl)phenylamino)pyrazolo[1,5-a][1,3,5]triazin-2-ylamino)-5-methoxy-2-methylphenyl)piperidin-1-yl)(morpholin-3-yl)methanone] | 0.035 |
| COc1cc(C2CCN(CCS(C)(=O)=O)CC2)c(C)cc1Nc1nc(Nc2ccccc2S(=O)(=O)C(C)C)n2nccc2n1 [Ex 7] | 0.05 |
| COc1cc(C2CCN(C(=O)CN)CC2)c(C)cc1Nc1nc(Nc2ccccc2S(=O)(=O)C(C)C)n2nccc2n1 [Ex 68] | 0.017 |
| COC[C@H](N)C(=O)N1CCC(c2cc(OC)c(Nc3nc(Nc4ccccc4S(=O)(=O)C(C)C)n4nccc4n3)cc2C)CC1 [Ex 94] | 0.016 |
| COc1cc(C2CCN(C(=O)CCCN3CCCC3)CC2)c(C)cc1Nc1nc(Nc2ccccc2S(=O)(=O)C(C)C)n2nccc2n1 [Ex 100] | 0.033 |
| CCNC1(C(=O)N2CCC(c3cc(OC)c(Nc4nc(Nc5ccccc5S(=O)(=O)C(C)C)n5nccc5n4)cc3C)CC2)CC1 [Ex 22] | 0.023 |
| COc1cc(C2CCN(C(=O)CN3C[C@@H](O)[C@H](O)C3)CC2)c(C)cc1Nc1nc(Nc2ccccc2S(=O)(=O)C(C)C)n2nccc2n1 [Ex 21] | 0.286 |
| CNC(=O)CN1CCC(c2cc(OC)c(Nc3nc(Nc4ccccc4S(=O)(=O)C(C)C)n4nccc4n3)cc2C)CC1 [Ex 12] | 0.028 |
| CC(C)S(=O)(=O)c1ccccc1Nc1nc(Nc2ccc3c(c2)CN(CCS(C)(=O)=O)CC3)nc2ccnn12 [Ex 39] | 0.464 |
| COc1cc(C2CCN(C(=O)CN3CC[C@@H](O)C3)CC2)c(C)cc1Nc1nc(Nc2ccccc2S(=O)(=O)C(C)C)n2nccc2n1 [Ex 60] | 0.031 |

| Structure (SMILES) | IC50 [µM] |
| --- | --- |
| COc1cc(C2CCN(C(=O)CN3CC[C@H](O)C3)CC2)c(C)cc1Nc1nc(Nc2ccccc2S(=O)(=O)C(C)C)n2nccc2n1 [Ex 77] | 0.036 |
| COc1cc(C2CCN(C(=O)[C@@H](C)N3CCCC3)CC2)c(C)cc1Nc1nc(Nc2ccccc2S(=O)(=O)C(C)C)n2nccc2n1 [Ex 96] | 0.032 |
| CC(C)S(=O)(=O)c1ccccc1Nc1nc(Nc2ccc(C3CCN(C(=O)CN4CCC4)CC3)cc2)nc2ccnn12 [Ex 93] | 0.132 |
| CN[C@@H](C)C(=O)N1CCC(c2cc(OC)c(Nc3nc(Nc4ccccc4S(=O)(=O)C(C)C)n4nccc4n3)cc2C)CC1 [Ex 24] | 0.021 |
| COc1cc(C2CCN(CC3CC3)CC2)c(C)cc1Nc1nc(Nc2ccccc2S(=O)(=O)C(C)C)n2nccc2n1 [Ex 8] | 0.043 |
| COc1cc(C2CCN(C3CCOCC3)CC2)c(C)cc1Nc1nc(Nc2ccccc2S(=O)(=O)C(C)C)n2nccc2n1 [Ex 83] | 0.023 |
| COc1cc(C2CCN(C(=O)CNCCO)CC2)c(C)cc1Nc1nc(Nc2ccccc2S(=O)(=O)C(C)C)n2nccc2n1 [Ex 58] | 0.086 |
| COc1cc(C2CCN(C(=O)CCCN(C)C)CC2)c(C)cc1Nc1nc(Nc2ccccc2S(=O)(=O)C(C)C)n2nccc2n1 [Ex 72] | 0.058 |
| COc1cc(C2CCN(C(=O)CN3CCC3)CC2)c(C)cc1Nc1nc(Nc2ccccc2S(=O)(=O)C(C)C)n2nccc2n1 [Ex 20] | 0.026 |
| Cc1cc(C2CCN(C(=O)CCN(C)C)CC2)ccc1Nc1nc(Nc2ccccc2S(=O)(=O)C(C)C)n2nccc2n1 [Ex 49] | 0.129 |
| COc1cc(C2CCN(C(=O)[C@H](C)NC(C)C)CC2)c(C)cc1Nc1nc(Nc2ccccc2S(=O)(=O)C(C)C)n2nccc2n1 [Ex 64] | 0.028 |
| COc1cc(C2CCN(C(=O)CN(C)C)CC2)c(C)cc1Nc1nc(Nc2ccccc2S(=O)(=O)C(C)C)n2nccc2n1 [Ex 2] | 0.011 |
| CCCN(CCC)CC(=O)N1CCC(c2cc(OC)c(Nc3nc(Nc4ccccc4S(=O)(=O)C(C)C)n4nccc4n3)cc2C)CC1 [Ex 102] | 0.049 |
| CC(C)S(=O)(=O)c1ccccc1Nc1nc(Nc2ccc(C3CCN(CCC(N)=O)CC3)cc2)nc2ccnn12 [Ex 92] | 0.13 |
| Cc1cc(C2CCN(CCS(C)(=O)=O)CC2)ccc1Nc1nc(Nc2ccccc2S(=O)(=O)C(C)C)n2nccc2n1 [Ex 46] | 0.031 |
| COc1cc(C2CCN(C(=O)CNC[C@@H](O)CO)CC2)c(C)cc1Nc1nc(Nc2ccccc2S(=O)(=O)C(C)C)n2nccc2n1 [Ex 43] | 0.15 |
| COc1cc(C2CCN(C(=O)C3(N)CC3)CC2)c(C)cc1Nc1nc(Nc2ccccc2S(=O)(=O)C(C)C)n2nccc2n1 [Ex 18] | 0.039 |
| CC(C)S(=O)(=O)c1ccccc1Nc1nc(Nc2ccc(C3CCNCC3)cc2)nc2ccnn12 [Ex 37] | 0.13 |
| COc1cc(C2CCN(C3CCSCC3)CC2)c(C)cc1Nc1nc(Nc2ccccc2S(=O)(=O)C(C)C)n2nccc2n1 [Ex 84] | 0.025 |
| CNCCC(=O)N1CCC(c2cc(OC)c(Nc3nc(Nc4ccccc4S(=O)(=O)C(C)C)n4nccc4n3)cc2C)CC1 [Ex 19] | 0.068 |
| COc1cc(C2CCN(C(=O)CCN3CCCC3)CC2)c(C)cc1Nc1nc(Nc2ccccc2S(=O)(=O)C(C)C)n2nccc2n1 [Ex 104] | 0.049 |
| COc1cc(C2CCN(C(=O)CN3CC[C@H](F)C3)CC2)c(C)cc1Nc1nc(Nc2ccccc2S(=O)(=O)C(C)C)n2nccc2n1 [Ex 76] | 0.075 |
| CNCC(=O)N1CCC(c2cc(OC)c(Nc3nc(Nc4ccccc4S(=O)(=O)C(C)C)n4nccc4n3)cc2C)CC1 [Ex 17] | 0.022 |
